The results in this text go back to paper PMC9388626, “STUB1 is an intracellular checkpoint for interferon gamma sensing” (Scientific Reports, 2022).

Series [1] relates to B16-F10 cells. The experiment in a line: Proteomics by mass spectrometry. Format: cell-based, murine. As to the method:
After overnight incubation, the culture media were replaced with fresh media (DMEM + 10% FBS) supplemented with 0.03 ng ml^−1 of recombinant mouse IFNγ (R&D Systems, #485-MI-100). After 24 h treatment, the cells were trypsinized, collected and washed twice with 0.5 ml PBS. The cell pellets collected from three independent experiments on separate day were lysed in 100 µl of lysis buffer containing 4% sodium dodecyl sulfate, 50 mM Tris–HCl pH 7.5, 50 µg ml^−1 of DNase (Roche, #10104159001), 50 µg ml^−1 of RNase (Roche, #10109169001) and Halt protease inhibitor cocktail (Thermo Scientific, #78430) on ice for 30 min followed by 65 °C for 30 min. Lysates were clarified by centrifugation at 16,000 g at 10 °C for 30 min. Protein content was re-extracted from the pellet with 50 µl of lysis buffer, sonicated with a single burst using a probe sonicator and heated at 95 °C for 10 min before centrifugation at 16,000 g at 10 °C for 15 min. Lysates from first and second extractions were pooled. Protein concentration was determined using BCA protein assay kit (Pierce, # 23225). Detergent removal and protein digestion were performed in centrifugal suspension trap columns (Protifi, C02-micro) according to the manufacturer’s instructions. Briefly, 80 µg protein extract from each sample was reduced with 50 mM dithiothreitol (Sigma, #43815) at 95 °C for 10 min and then alkylated with 100 mM iodoacetamide (Sigma, I2512) in the dark at ambient temperature for 30 min. The samples were acidified with 1.2% of phosphoric acid and mixed well with washing buffer consisting of 90% methanol and 100 mM ammonium bicarbonate. The samples were transferred to the suspension trap columns and centrifuged at 4000 g for 30 s. The columns were washed 3 times with washing buffer. Proteins trapped in the suspension bed were digested in 50 mM ammonium bicarbonate with trypsin and endoproteinase Lys-C (Promega, V5073) at enzyme to protein ratio 1:25 in a 47 °C waterbath for 2 h. Peptides were eluted firstly with 50 mM ammonium bicarbonate, then with 0.2% formic acid and lastly with 50% acetonitrile and 0.2% formic acid. The eluates were pooled and vacuum dried completely. Dried peptides were reconstituted with 0.1% formic acid in water, followed by injecting 4 µg for mass spectrometry analysis. Peptides were loaded on a reverse phase EASY-Spray column (50 cm × 75 μm inner diameter) operated using Easy-nLC 1200 (Thermo Fisher Scientific) coupled online to a Q-Exactive HF-X mass spectrometer (Thermo Fisher Scientific). Peptides were separated using a 120 min linear gradient at a flow rate of 300 nL min^−1. The Q-Exactive was operated in ‘top-10’ data-dependent acquisition (DDA) mode with full scan acquired at a resolution of 120,000 (scan range 200–1800 m/z) with an automatic gain control (AGC) target of 3e6. The top ten most abundant ions from the full scan were isolated with an isolation width of 0.7 m/z and fragmented by higher energy collisional dissociation (HCD) with normalized collision energy (NCE) of 27. MS/MS scan was acquired at a resolution of 30,000 with an AGC target of 1e5. The default charge state was set at 2 and dynamic exclusion was enabled for 10 s. Maximum ion injection time for full scan and MS/MS scan were 100 ms and 105 ms respectively.
DDA raw files were processed with Proteome Discoverer 2.4 using Sequest HT search engine where mass spectrometric data was searched against SwissProt TaxID 10090 mouse database (v2017-10-25). Percolator was used to validate search results based on the concatenated mode where only the best scoring PSMs (target/decoy) were considered. Trypsin was specified as the enzyme, cleaving after all lysine and arginine residues and allowing up to two missed cleavages. Carbamidomethylation of cysteines was set as fixed modification while variable modifications included oxidation of methionine, acetylation of N-terminus, N-terminal loss of methionine and N-terminal loss of metionine along with the addition of an acetyl group. […]

Series [2] concerns MCF7 cells. The experiment in a line: Lumit immunoassay, phospho-Tyr701-STAT1. To be noted: MCF7, PTPN2 or STUB1 loss, 30 min. It is filed as cell-based, human. As to the method:
(§1) Parental and CRISPR-edited tumour cells were seeded in a cell density of 12,500 (DU145), 15,000 (PC-3), or 30,000 (MCF7) per well in 384-well plate (Greiner Bio-One, #781080) filled with 25 µl culture media + 10% FBS. After 20–24 h incubation, the cells were treated with recombinant human IFNγ (R&D Systems, #285-IF-100) by adding an equal volume of the complete culture media containing the cytokine. After 30 min of stimulation, the culture media were removed by gentle spin using Blue Washer (BlueCatBio). Lumit immunoassay (Promega, #W1202) was performed according to manufacturer’s instrutions. The assay buffer was supplemented with Halt protease and phosphatase inhibitor cocktail (Thermo Scientific, #78443). The cells were lyzed with 12 µl per well of lysis solution (0.02% digitonin) for 20 min. The cell lystates were probed for 90 min with 12 µl of mixture of primary antibodies, which include anti-STAT1 rabbit antibody (Cell Signaling Technology, #14994), anti-pSTAT1 (Tyr701) mouse antibody (Abcam, ab29045), Lumit anti-mouse antibody-LgBiT (Promega) and Lumit anti-rabbit antibody-SmBiT (Promega). Final concentration of each antibody is 0.15 µg ml^−1. After 2 min incubation in the presence of the Lumit detection reagent (6 µl), the luminescence signals were detected by Infinite M1000 PRO (Tecan).

In series [3] the test system is PC-3 cells. The series can be described thus: Lumit immunoassay, phospho-Tyr701-STAT1. Format: cell-based, human. The note with it: PC-3, PTPN2 or STUB1 loss, 30 min. As to the method: as §1
The test system of series [4] is DU145 cells. The experiment in a line: Lumit immunoassay, phospho-Tyr701-STAT1. Format: cell-based, human. To be noted: DU145, PTPN2 or STUB1 loss, 30 min. The protocol: as §1

For “gStub1 #1 (guide GCATTGCTAAGAAGAAGCGC; chemistry not given here)”, the “Log2(FC)” value in series [1] (B2M (Fig. 2g)) turned out to be 2.591; in series [1] (BST2 (Fig. 2g)), 2.607; in series [1] (ERAP1 (Fig. 2g)), 2.501; in series [1] (GBP2 (Fig. 2g)), 4.916; in series [1] (H2-D1 (Fig. 2g)), 1.708; in series [1] (IFI35 (Fig. 2g)) it was 2.548. Moreover, the “Log2(FC)” value in series [1] (IRGM1 (Fig. 2g)) worked out at 4.787; in series [1] (MOV10 (Fig. 2g)), 1.934; in series [1] (PSME1 (Fig. 2g)) it was 1.818; in series [1] (PSME2 (Fig. 2g)), 2.036; in series [1] (STAT1 (Fig. 2g)) it was 2.521; in series [1] (STAT3 (Fig. 2g)), 1.035. Moreover, the “Log2(FC)” value in series [1] (TGTP1/TGTP2 (Fig. 2g)) is 7.1.
For IFNγ, the “Phosphorylation of Tyr701-STAT1” value in series [2], in series [3] and in series [4] was “increased the cells’ response to IFNγ in a dose-dependent manner” each time.
